ChEMBL document CHEMBL1156090, “Design and synthesis of cell potent BACE-1 inhibitors: structure-activity relationship of P1' substituents” (Bioorg Med Chem Lett, 2009)
pEC50, pIC50: −log10 of the molar value.

Tests used:
HEK293 = experiment: […] HEK293 cells expressing swedish-mutant APP FAD isoform; assay type: functional, Homo sapiens; conditions: read-out: ED50 (the source's name)
Beta-secretase 1 = Beta-secretase 1 (Homo sapiens, UniProt P56817)
Description: Inhibition of recombinant BACE1 expressed in Escherichia coli after 3 hrs by oregon green based fluorescence polarization assay

Cathepsin D = Cathepsin D (Homo sapiens, UniProt P07339)
Description: Inhibition of cathepsin D assessed as reduction in polarization after 110 mins by oregon green based fluorescence polarization assay

[1] = Apparent permeability from apical side to basolateral side in MDCK2 cells at 5 uM after 120 mins by LC/MS/MS; assay type: ADME, cell-based, Canis lupus familiaris, MDCK-II; conditions: dog, MDCK

Beta-secretase 1, sequence (P56817 whole entry): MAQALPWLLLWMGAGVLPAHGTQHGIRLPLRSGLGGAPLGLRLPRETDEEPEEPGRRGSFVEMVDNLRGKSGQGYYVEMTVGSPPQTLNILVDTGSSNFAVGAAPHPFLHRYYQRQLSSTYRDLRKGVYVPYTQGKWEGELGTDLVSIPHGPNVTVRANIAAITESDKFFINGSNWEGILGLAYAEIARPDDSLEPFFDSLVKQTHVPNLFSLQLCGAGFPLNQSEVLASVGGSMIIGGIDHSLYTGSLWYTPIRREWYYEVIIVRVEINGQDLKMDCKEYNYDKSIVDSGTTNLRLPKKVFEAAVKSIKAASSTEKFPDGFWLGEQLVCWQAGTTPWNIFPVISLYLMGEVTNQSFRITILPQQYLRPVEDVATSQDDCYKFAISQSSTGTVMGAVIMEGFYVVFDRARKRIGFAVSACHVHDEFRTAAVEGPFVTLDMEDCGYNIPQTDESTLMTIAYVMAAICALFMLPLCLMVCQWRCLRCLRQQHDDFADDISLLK
Cathepsin D, sequence (P07339 65-162 limits assumed): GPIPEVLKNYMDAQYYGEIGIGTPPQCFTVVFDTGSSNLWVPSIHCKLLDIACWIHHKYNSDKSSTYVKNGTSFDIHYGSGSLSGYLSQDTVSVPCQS
Cathepsin D, sequence (P07339 169-412 limits assumed): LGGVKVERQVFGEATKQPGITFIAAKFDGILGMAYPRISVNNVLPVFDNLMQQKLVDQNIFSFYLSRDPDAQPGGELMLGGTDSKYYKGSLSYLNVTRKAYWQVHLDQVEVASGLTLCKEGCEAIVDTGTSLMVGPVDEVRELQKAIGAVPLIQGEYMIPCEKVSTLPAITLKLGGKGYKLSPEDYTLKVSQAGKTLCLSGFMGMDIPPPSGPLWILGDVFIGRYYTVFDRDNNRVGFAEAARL

Structure (SMILES)	pEC50 (HEK293; Homo sapiens, HEK293)	pIC50 (Beta-secretase 1)	pIC50 (Cathepsin D)	Papp A→B at 2 h, 5 µM [1] [×10⁻⁶ cm/s]	pEC50 (HEK293)
CC(=O)N[C@@H](Cc1cc(F)cc(F)c1)[C@H](O)CN[C@@]1(c2cccc(C(C)(C)C)c2)CC[C@H](N(O)C(C)=O)NC1	8.89	6.62	5.64	–	–
CC(=O)N[C@@H](Cc1cc(F)cc(F)c1)[C@H](O)CN[C@@]1(c2cccc(C(C)(C)C)c2)CC[C@H](Nc2cccnc2)NC1	–	6.30	5.01	–	–
CC(=O)N[C@@H](Cc1cc(F)cc(F)c1)[C@H](O)CN[C@@]1(c2cccc(C(C)(C)C)c2)CCC(NO)=NC1	9.05	8.06	6.37	–	–
CC(=O)N[C@@H](Cc1cc(F)cc(F)c1)[C@H](O)CNC1(c2cccc(C(C)(C)C)c2)CCNCC1	6.15	5.33	< 5.00	–	–
CC(=O)N[C@@H](Cc1cc(F)cc(F)c1)[C@H](O)CNC1(c2cccc(C(C)(C)C)c2)CCC(=O)CC1	8.25	6.92	6.35	–	–
CC(=O)N[C@@H](Cc1cc(F)cc(F)c1)[C@H](O)CN[C@@]1(c2cccc(C(C)(C)C)c2)CC[C@H](S(C)(=O)=O)NC1	7.00	6.68	5.64	–	–
CC(=O)N[C@@H](Cc1cc(F)cc(F)c1)[C@H](O)CN[C@]1(c2cccc(C(C)(C)C)c2)CC[C@H](O)CC1	6.06	5.04	< 5.00	–	–
CS[C@H]1CC[C@@](NC[C@@H](O)[C@H](Cc2cc(F)cc(F)c2)NC(C)=O)(c2cccc(C(C)(C)C)c2)CN1	8.12	7.62	7.08	–	–
CC(=O)N[C@@H](Cc1cc(F)cc(F)c1)[C@H](O)CN[C@]1(c2cccc(C(C)(C)C)c2)CC[C@@H](CO)CC1	7.51	7.42	6.48	–	–
CC(=O)N[C@@H](Cc1cc(F)cc(F)c1)[C@H](O)CN[C@]1(c2cccc(C(C)(C)C)c2)CC[C@@H](O)CC1	7.96	7.62	5.85	0.3	–
CC(=O)N[C@@H](Cc1cc(F)cc(F)c1)[C@H](O)CN[C@@]1(c2cccc(C(C)(C)C)c2)CC[C@H](C(F)(F)F)NC1	7.27	7.48	7.55	–	–
CON[C@H]1CC[C@@](NC[C@@H](O)[C@H](Cc2cc(F)cc(F)c2)NC(C)=O)(c2cccc(C(C)(C)C)c2)CN1	8.12	7.00	6.28	–	–
CO[C@H]1CC[C@@](NC[C@@H](O)[C@H](Cc2cc(F)cc(F)c2)NC(C)=O)(c2cccc(C(C)(C)C)c2)CN1	7.89	6.85	6.89	–	–
COC(=O)N[C@H]1CC[C@@](NC[C@@H](O)[C@H](Cc2cc(F)cc(F)c2)NC(C)=O)(c2cccc(C(C)(C)C)c2)CN1	7.80	6.62	5.70	–	–
CC(=O)N[C@@H](Cc1cc(F)cc(F)c1)[C@H](O)CN[C@@]1(c2cccc(C(C)(C)C)c2)CC[C@H](Nc2ccccn2)NC1	7.68	7.14	5.36	–	–
CC(=O)N[C@@H](Cc1cc(F)cc(F)c1)[C@H](O)CN[C@@]1(c2cccc(C(C)(C)C)c2)CC[C@H](NC=O)NC1	8.62	6.68	< 5.00	–	–
CC(=O)N[C@@H](Cc1cc(F)cc(F)c1)[C@H](O)CN[C@@]1(c2cccc(C(C)(C)C)c2)CC[C@H](C#N)NC1	7.43	6.42	6.19	–	–
CC(=O)N[C@@H](Cc1cc(F)cc(F)c1)[C@H](O)CN[C@@]1(c2cccc(C(C)(C)C)c2)CC[C@H](NO)NC1	9.02	7.72	5.41	–	–
CC(=O)N[C@@H](Cc1cc(F)cc(F)c1)[C@H](O)CN[C@]1(c2cccc(C(C)(C)C)c2)CC[C@@H](CCO)CC1	< 6.00	< 5.00	< 5.00	–	–

Structure (SMILES)	pEC50 (HEK293; Homo sapiens, HEK293)	pIC50 (Beta-secretase 1)	pIC50 (Cathepsin D)	Papp A→B at 2 h, 5 µM [1] [×10⁻⁶ cm/s]	pEC50 (HEK293)
CC(=O)N[C@@H](Cc1cc(F)cc(F)c1)[C@H](O)CN[C@@]1(c2cccc(C(C)(C)C)c2)CC[C@H](NS(C)(=O)=O)NC1	8.23	6.40	5.14	–	–
CC(=O)N[C@H]1CC[C@@](NC[C@@H](O)[C@H](Cc2cc(F)cc(F)c2)NC(C)=O)(c2cccc(C(C)(C)C)c2)CN1	7.32	6.46	< 5.00	–	–
CC(=O)N[C@@H](Cc1cc(F)cc(F)c1)[C@H](O)CNC1(c2cccc(C(C)(C)C)c2)CCN(C(N)=O)CC1	< 6.00	6.42	5.37	–	–
CC(=O)N[C@@H](Cc1cc(F)cc(F)c1)[C@H](O)CNC1(c2cccc(C(C)(C)C)c2)CCc2nc(C)ncc2C1 (mixture of isomers)	7.82	7.03	6.04	–	–
CC(=O)N[C@@H](Cc1cc(F)cc(F)c1)[C@H](O)CNC1(c2cccc(C(C)(C)C)c2)CCCNC1 (mixture of isomers)	< 6.00	< 5.00	5.63	–	–
CC(=O)N[C@@H](Cc1cc(F)cc(F)c1)[C@H](O)CNC1(c2cccc(C(C)(C)C)c2)CCC(=O)NC1 (mixture of isomers)	7.12	7.33	6.74	–	–
CC(=O)N[C@@H](Cc1cc(F)cc(F)c1)[C@H](O)CNC1(c2cccc(C(C)(C)C)c2)CCCN(C(=O)OCc2ccccc2)C1 (mixture of isomers)	6.11	6.07	8.48	–	–
CC(=O)N[C@@H](Cc1cc(F)cc(F)c1)[C@H](O)CNC1(c2cccc(C(C)(C)C)c2)CCCN(C(N)=O)C1 (mixture of isomers)	6.68	6.48	7.05	–	–
CC(=O)N[C@@H](Cc1cc(F)cc(F)c1)[C@H](O)CNC1(c2cccc(C(C)(C)C)c2)CCOCC1 (mixture of isomers)	–	7.21	6.64	8.1	–
CC(=O)N[C@@H](Cc1cc(F)cc(F)c1)[C@H](O)CNC1(c2cccc(C(C)(C)C)c2)CCCC1 (mixture of isomers)	< 7.00	6.66	6.89	–	–
CC(=O)N[C@@H](Cc1cc(F)cc(F)c1)[C@H](O)CNC1(c2cccc(-n3cccn3)c2)CCOC1 (mixture of isomers)	< 6.00	5.62	5.31	–	–
CC(=O)N[C@@H](Cc1cc(F)cc(F)c1)[C@H](O)CNC1(c2cccc(C(C)(C)C)c2)CCCN(O)C1 (mixture of isomers)	7.35	6.40	6.17	–	–
CC(=O)N[C@@H](Cc1cc(F)cc(F)c1)[C@H](O)CNC1(c2cccc(-n3cccn3)c2)CCCOC1 (mixture of isomers)	7.04	6.57	6.77	–	–
CC(=O)N[C@@H](Cc1cc(F)cc(F)c1)[C@H](O)CNC1(c2cccc(C(C)(C)C)c2)CCCN(C(C)=O)C1 (mixture of isomers)	6.25	5.89	6.39	–	–
CC(=O)N[C@@H](Cc1cc(F)cc(F)c1)[C@H](O)CNC1(c2cccc(C(C)(C)C)c2)CCc2n[nH]cc2C1 (mixture of isomers)	8.68	–	6.52	1.6	–
CC(=O)N[C@@H](Cc1cc(F)cc(F)c1)[C@H](O)CNC1(c2cccc(C(C)(C)C)c2)CCc2nc(N)ncc2C1 (mixture of isomers)	8.74	7.85	6.68	–	–
CC(=O)N[C@@H](Cc1cc(F)cc(F)c1)[C@H](O)CNC1(c2cccc(C(C)(C)C)c2)CCNC(=O)C1 (single isomer, unassigned)	7.68	7.74	6.48	–	–
CC(=O)N[C@@H](Cc1cc(F)cc(F)c1)[C@H](O)CNC1(c2cccc(C(C)(C)C)c2)CCNC(=O)C1 (stereo in doubt; 16)	–	7.72	5.96	–	7.64
